Ends that are not written are not given here.
Assay: in vitro
Assay type: cell-based, murine
Details: mouse
Protocol: Cell viability of synthetic peptides on the growth of RAW264.7 cells was measured using the methyl thiazolyl tetrazolium (MTT) assay after 48 h. Briefly, exponentially growing macrophages RAW264.7 cells were mechanically scraped, plated at a density of 7×10^3 cells in 100 μl were seeded into each well of a 96-well plate then incubated for 12 h at 37° C. under 5% CO2, and then the cells are treated with test peptides: IS 111 ([…]) or dexamethasone ([…]) cells were incubated at 37° C. in the presence of 5% CO2 for 42 h. After incubation, the morphology of cells was examined under a microscope. Following incubation, MTT was added to the cells (20 μL at 5 mg/mL MTT dissolved in 1×PBS) and incubated for 4 hours in the presence of 5% CO2 at 37° C. Formazan crystals were dissolved by the addition of 100 μL of 100% DMSO per well. Plates were then gently swirled for 5 min at room temperature to dissolve the precipitate. Absorbance was monitored at 575 nm using a microplate reader. Maximum cytotoxicity (100%) was determined by cells incubated with 1% Triton X-100; PBS was used as a negative control. Cells without treatment were considered as control. The average absorbance for each sample group was used to evaluate cell viability.
Optical density (O.D.) was calculated as the difference between the absorbance at the reference wavelength and that at the test wavelength. The relative cell viability was determined by the amount of MTT converted to the insoluble formazan salt. The data were expressed as the mean percentage of viable cells when compared with untreated cells (control). The half maximal growth inhibitory concentration (IC50) value was calculated from the line equation of the dose-dependent curve of each compound. The results were compared with the cytotoxic activity of dexamethasone, a known anti-inflammatory drug. […] Percentages of cell viability and LC50 of cells were calculated: Percent cell viability was calculated as (O.D. of drug-treated sample/control O.D.)×100. The data were expressed as percent cell viability compared with control (dimethyl sulfoxide/NS). The experiment was carried out in four samples of each concentration.
The percentages of cell viability and LC50 of cells were calculated by using the formula below.
Where Absorbance control is the DMSO 0.1%-treated cell absorbance, and Absorbance sample is the test sample-treated cell absorbance. LC50 values were derived from dose-response curves, and data were expressed as the mean of three independent experiments. Statistical analyses involved Student's t-test and one-way ANOVA.
The test peptide IS 111 cytotoxic effects on RAW 264.7 mouse […] were determined by MTT assay. […] Cell viability was measured by MTT assay based on the conversion of yellow tetrazolium salt to form a purple formazan product. The viability of the RAW 264.7 cells can be seen on table 21.

“FAKKFAK [IS 111, Phe-Ala-Lys-Lys-Phe-Ala-Lys]” showed a viability at 48 h, 1.5625 μg/mL of 84.5%, a viability at 48 h, 3.125 μg/mL of 91.5% and a viability at 48 h, 6.25 μg/mL of 90.2%. It also gave a viability at 48 h, 12.5 μg/mL of 99.7%, a viability at 48 h, 25 μg/mL of 96.4% and a viability at 48 h, 50 μg/mL of 95%. The viability at 48 h, 100 μg/mL was 91.4%.
